# Measured values taken from patent publication US12514861B2, “Targeting DNA-PKCS and B7-H1 to treat cancer” (Mayo Foundation for Medical Education and Research, priority 2014, dated 2026).
# Read-outs that look alike come from different tables or passages of the source.
# How the values were obtained:
# [1] = system: Mock/624mel cells; assay: MTS tumor cell survival assay; type: cell-based; conditions: pretreatment with 10 uM NU7026 for 1 hour, MTS 72 hours after Dox
# Method: (§7) Cells were pre-treated with DMSO or NU7026 (10 uM) for 1 hour before treatment with doxorubicin (Dox). The relative survival of tumor cells was measured by MTS assay 72 hours after Dox treatment.
# (§8) To test whether the association of B7-H1 with DNA-PKcs is a mechanism of drug resistance, the effects of NU7026 on drug sensitivity of B7-H1- or Mock-transfected 624mel cells were tested. […] Using the same dose (10 uM) of NU7026, experiments were conducted to determine whether NU7026 would affect the drug sensitivity of B7-H1/624mel cells.
# [2] = system: ERK1/2 activation in B7-H1/624mel cells; assay: Intracellular flow cytometry for phospho-ERK1/2; type: cell-based; conditions: 10 uM, 24 hours
# Method: (§1) FIG. 9 is a series of graphs plotting the levels of phosphorylated ERK (top graphs) and total ERK (bottom graphs) in Mock/624mel (left) and B7-H1/624mel (right) tumor cells treated with DMSO or NU7026. Cells were treated with DMSO or NU7026 (10 uM) for 24 hours before intracellular staining for phospho-ERK or total ERK. Numbers are MFI. Inhibition of DNA-PKcs reduced ERK activation, as indicated in the diagram on the right.
# (§2) To test the role of DNA-PKcs in activation of the MAPK signal cascade, tumor cells were treated with NU7026, a DNA-PKcs specific inhibitor. […] As a mechanism of action of ERK1/2 in drug resistance, ERK1/2 phosphorylates Bim and enhances degradation of Bim in tumor cells (Gillings, et al., FEBS J 276:6050-6062, 2009; and Luciano et al., Oncogene 22:6785-6793, 2003).
# [3] = system: ERK1/2 activation in Mock/624mel cells; assay: Intracellular flow cytometry for phospho-ERK1/2; type: cell-based; conditions: 10 uM, 24 hours
# Method: as §1, §2
# [4] = system: PI3K; conditions: read-out: IC50 for inhibition of PI3K; cited from earlier work
# [5] = target: T1, association of B7-H1 with DNA-PKcs (Homo sapiens, UniProt P78527); assay: Immuno-precipitation assay of B7-H1 association with DNA-PKcs; type: cell-based; conditions: B7-H1 positive human breast cancer cells (MBA-MD-231)
# T1 construct: B7-H1 positive human breast cancer cells (MBA-MD-231) were used; endogenous in cells; host or cells: MDA-MB-231 human breast cancer cells
# T1 sequence (P78527 whole entry): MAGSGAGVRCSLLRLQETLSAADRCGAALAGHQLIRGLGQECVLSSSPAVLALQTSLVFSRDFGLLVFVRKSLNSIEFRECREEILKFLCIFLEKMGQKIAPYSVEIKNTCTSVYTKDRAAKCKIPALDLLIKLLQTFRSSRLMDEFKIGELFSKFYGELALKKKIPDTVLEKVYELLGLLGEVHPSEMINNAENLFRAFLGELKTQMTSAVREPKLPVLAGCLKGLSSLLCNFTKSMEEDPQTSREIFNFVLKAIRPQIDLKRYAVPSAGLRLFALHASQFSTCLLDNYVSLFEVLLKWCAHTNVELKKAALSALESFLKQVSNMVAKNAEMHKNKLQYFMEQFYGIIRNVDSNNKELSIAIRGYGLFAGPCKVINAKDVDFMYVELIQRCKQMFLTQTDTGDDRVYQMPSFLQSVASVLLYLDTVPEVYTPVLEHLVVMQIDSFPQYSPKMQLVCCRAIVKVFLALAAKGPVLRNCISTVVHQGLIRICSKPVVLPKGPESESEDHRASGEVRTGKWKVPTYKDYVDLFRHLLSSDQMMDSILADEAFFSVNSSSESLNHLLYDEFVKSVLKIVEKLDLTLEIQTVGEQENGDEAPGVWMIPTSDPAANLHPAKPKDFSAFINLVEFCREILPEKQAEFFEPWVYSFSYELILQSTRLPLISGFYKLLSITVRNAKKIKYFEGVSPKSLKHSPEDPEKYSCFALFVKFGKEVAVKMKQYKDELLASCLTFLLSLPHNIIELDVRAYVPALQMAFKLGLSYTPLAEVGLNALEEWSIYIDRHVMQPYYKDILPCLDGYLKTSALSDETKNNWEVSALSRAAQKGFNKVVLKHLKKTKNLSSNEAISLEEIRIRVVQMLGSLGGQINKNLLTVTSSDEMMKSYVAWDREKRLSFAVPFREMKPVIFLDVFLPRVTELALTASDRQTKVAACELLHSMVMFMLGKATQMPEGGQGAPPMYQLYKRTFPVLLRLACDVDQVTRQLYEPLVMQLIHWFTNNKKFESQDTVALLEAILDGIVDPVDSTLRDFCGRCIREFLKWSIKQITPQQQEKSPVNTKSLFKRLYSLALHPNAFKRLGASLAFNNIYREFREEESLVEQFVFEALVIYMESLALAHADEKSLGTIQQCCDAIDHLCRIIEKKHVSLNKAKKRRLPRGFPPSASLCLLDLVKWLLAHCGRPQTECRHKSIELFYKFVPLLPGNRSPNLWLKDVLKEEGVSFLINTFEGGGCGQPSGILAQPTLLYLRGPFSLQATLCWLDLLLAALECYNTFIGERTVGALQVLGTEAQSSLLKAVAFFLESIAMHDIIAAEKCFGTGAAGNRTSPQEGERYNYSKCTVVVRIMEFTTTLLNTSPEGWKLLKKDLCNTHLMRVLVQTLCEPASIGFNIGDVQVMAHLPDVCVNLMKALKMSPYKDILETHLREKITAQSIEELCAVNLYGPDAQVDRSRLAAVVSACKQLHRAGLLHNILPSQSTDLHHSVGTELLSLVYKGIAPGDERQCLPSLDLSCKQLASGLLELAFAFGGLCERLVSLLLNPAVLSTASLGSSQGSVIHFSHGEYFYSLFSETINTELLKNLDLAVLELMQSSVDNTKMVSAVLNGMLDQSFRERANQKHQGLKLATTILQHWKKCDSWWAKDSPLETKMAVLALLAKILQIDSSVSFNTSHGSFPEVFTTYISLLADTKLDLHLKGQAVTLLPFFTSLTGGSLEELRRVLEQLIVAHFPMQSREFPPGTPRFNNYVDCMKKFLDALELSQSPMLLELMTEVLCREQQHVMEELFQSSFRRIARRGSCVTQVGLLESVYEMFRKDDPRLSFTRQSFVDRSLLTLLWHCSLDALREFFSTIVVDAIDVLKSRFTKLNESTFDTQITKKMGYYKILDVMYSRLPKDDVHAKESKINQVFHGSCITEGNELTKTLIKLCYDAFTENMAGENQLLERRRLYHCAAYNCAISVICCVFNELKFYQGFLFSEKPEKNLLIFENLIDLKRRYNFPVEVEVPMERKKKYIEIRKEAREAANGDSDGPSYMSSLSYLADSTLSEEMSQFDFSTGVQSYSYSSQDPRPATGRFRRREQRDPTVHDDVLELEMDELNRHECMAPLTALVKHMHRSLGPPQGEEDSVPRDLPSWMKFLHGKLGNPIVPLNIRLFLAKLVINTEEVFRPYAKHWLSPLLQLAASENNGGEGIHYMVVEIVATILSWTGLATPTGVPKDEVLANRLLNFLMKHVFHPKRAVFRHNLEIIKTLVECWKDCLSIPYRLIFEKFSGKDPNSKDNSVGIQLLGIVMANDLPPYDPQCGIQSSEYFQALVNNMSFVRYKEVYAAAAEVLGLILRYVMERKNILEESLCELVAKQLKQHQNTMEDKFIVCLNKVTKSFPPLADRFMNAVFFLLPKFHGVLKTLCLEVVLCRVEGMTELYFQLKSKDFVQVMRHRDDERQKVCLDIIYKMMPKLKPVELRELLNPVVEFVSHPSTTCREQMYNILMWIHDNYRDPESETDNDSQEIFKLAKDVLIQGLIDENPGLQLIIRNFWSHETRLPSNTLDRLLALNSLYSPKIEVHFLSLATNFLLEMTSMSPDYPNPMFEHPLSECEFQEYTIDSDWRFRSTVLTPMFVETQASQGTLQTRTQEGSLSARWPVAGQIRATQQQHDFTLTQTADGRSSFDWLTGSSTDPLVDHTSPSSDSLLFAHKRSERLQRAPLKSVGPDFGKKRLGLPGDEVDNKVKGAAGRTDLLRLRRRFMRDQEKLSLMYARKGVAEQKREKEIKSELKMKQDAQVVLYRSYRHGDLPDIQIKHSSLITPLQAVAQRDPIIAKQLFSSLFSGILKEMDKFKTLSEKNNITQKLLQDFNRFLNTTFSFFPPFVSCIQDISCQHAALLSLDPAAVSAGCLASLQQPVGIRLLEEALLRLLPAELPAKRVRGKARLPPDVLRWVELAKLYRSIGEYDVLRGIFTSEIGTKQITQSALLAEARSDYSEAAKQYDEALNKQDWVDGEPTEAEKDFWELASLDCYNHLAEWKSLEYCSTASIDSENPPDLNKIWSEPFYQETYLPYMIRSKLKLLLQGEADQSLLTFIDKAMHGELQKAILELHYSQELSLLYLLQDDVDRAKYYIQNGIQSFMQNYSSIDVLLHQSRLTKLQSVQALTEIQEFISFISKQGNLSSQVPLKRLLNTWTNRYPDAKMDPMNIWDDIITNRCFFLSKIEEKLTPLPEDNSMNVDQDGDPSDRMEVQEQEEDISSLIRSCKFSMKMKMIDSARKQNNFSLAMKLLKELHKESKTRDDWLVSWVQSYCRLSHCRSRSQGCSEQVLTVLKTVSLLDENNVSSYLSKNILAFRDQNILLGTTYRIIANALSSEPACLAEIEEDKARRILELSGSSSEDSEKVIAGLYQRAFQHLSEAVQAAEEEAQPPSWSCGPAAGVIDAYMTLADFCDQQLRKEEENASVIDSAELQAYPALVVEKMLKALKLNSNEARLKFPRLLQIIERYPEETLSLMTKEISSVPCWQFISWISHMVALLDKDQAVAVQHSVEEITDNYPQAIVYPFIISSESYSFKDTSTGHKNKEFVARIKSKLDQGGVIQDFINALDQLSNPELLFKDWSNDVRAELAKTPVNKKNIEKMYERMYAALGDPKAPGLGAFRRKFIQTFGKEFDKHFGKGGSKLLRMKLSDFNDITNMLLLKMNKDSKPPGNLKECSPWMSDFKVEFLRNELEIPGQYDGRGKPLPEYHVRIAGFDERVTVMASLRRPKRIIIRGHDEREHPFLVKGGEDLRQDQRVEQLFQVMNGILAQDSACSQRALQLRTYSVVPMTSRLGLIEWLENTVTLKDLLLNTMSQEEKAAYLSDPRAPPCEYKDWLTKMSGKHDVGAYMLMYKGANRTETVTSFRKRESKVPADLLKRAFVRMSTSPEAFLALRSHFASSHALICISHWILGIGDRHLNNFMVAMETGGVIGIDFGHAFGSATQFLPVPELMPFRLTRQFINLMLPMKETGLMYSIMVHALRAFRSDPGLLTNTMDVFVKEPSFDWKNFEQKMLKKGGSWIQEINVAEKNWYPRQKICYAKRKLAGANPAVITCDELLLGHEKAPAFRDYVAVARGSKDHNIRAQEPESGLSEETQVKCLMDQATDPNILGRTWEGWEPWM
# Method: (§3) MBA-MD-231 human breast cancer cells, which are positive for B7-H1, were incubated with NU7026, an inhibitor of DNA-PKCs. […] FIG. 15B is a series of pictures from an immunofluorescence assay in which the cells treated with doxorubicin, NU7026, or both, and stained for DNA-PKcs, DNA, or B7-H1. Doxorubicin-induced co-localization (arrow, upper right panel) of B7-H1 and DNA-PKcs at the nucleus was blocked by NU7026 (lower right panel).
# (§4) B7-H1 positive human breast cancer cells (MBA-MD-231) were used to examine the association of DNA-PKcs and B7-H1.
# [6] = target: T2, co-localization of B7-H1 and DNA-PKcs at the nucleus (Homo sapiens, UniProt P78527); assay: Immunofluorescence staining of B7-H1 and DNA-PKcs co-localization; type: cell-based
# T2 construct: B7-H1 positive human breast cancer cells (MBA-MD-231) were used; endogenous in cells; host or cells: MDA-MB-231 human breast cancer cells
# T2 sequence (P78527 whole entry): as above
# Method: FIG. 6 is a series of pictures showing co-localization of B7-H1 and DNA-PKcs. A human breast tumor cell line (MDA-MB-231) was treated with doxorubicin (2 ug/ml) for 2 hours. […] Arrows or arrowheads indicate B7-H1 in plasma or in nuclei, respectively.
# as §3
# B7-H1 undergoes redistribution from the cell surface into the nucleus in human breast tumor cells upon treatment with the cytotoxic drug, doxorubicin (Ghebeh et al., supra).
# as §4
# [7] = target: DNA-PKcs (Homo sapiens, UniProt P78527); conditions: cited from earlier work
# [8] = system: B7-H1/624mel cells; assay: MTS tumor cell survival assay; type: cell-based; conditions: for drug resistance of B7-H1/624mel cells compared with Mock/624mel cells (tumor cell survival): varying drug concentrations, 72 hours of culture, MTS assay
# Method: as §7
# Experiments were conducted to test whether B7-H1-expressing tumors would show resistance to drugs that cause DNA damage. Along with cisplatin, which crosslinks DNA, doxorubicin (a topoisomerase II inhibitor that leads to generation of free radicals) and SN38 (a topoisomerase I inhibitor) were tested. Drug sensitivity in B7-H1- and Mock-transfected 624mel melanoma cells was examined in cultures with varying concentrations of the drugs. After 72 hours of culture, tumor cell survival was measured with a MTS assay (Pei et al., Cancer Cell 16:259-266, 2009).
# as §8
# [9] = system: B7-H1/624mel cells; assay: Intracellular staining for active caspase-3; type: cell-based; conditions: doxorubicin 1.5 ug/ml, 48 hr
# Excerpt: (§5) FIG. 1A is a series of graphs plotting relative survival of Mock/624mel (triangles) and B7-H1/624mel (squares) cells treated with the indicated drugs, as determined by MTS (3-(4,5-dimethylthiazol-2-yl)-5-(3-carboxymethoxyphenyl)-2-(4-sulfophenyl)-2H-tetrazolium) assay. The p-value for area under the curve (dose-response curves) was significant (p<0.01) for treatment with cisplatin (left), doxorubicin (center), and SN38 (right). One of three experiments is shown. Apoptosis of tumor cells treated with doxorubicin (1.5 ug/ml, 48 hr.) was analyzed by tetramethylrhodamine ethyl ester (TMRE) and Annexin V staining (FIG. 1), and by intracellular staining for active caspase-3 (FIG. 1C). Numbers are percentages of gated population.
# (§6) Experiments were conducted to test whether B7-H1-expressing tumors would show resistance to drugs that cause DNA damage. […] After 72 hours of culture, tumor cell survival was measured with a MTS assay (Pei et al., Cancer Cell 16:259-266, 2009). […] Since a mechanism of action of most cytotoxic drugs is to induce apoptosis (Sedletska et al., Curr Med Chem Anti-cancer Agents 5:251-265, 2005; and Wang et al., J Biol Chem 279:25535-25543, 2004), apoptosis of B7-H1/624mel and Mock/624mel tumor cells was measured and compared after treatment with doxorubicin. […]
# [10] = system: B7-H1/624mel cells; assay: Apoptosis by Annexin V binding and TMRE staining; type: cell-based; conditions: doxorubicin 1.5 ug/ml, 48 hr
# Excerpt: as §5, §6
smiles,measurement,setting,value
O=c1cc(N2CCOCC2)oc2c1ccc1ccccc12 [NU7026],effect on drug sensitivity of Mock/624mel cells,[1],increased the drug sensitivity
same,decrease of activation of ERK1/2 (phospho-ERK),[2],~2 fold
same,decrease of activation of ERK1/2 (phospho-ERK),[3],not
same,IC50,[4],13000 nM
same,effect on association of B7-H1 with DNA-PKcs,[5],abolished
same,effect on doxorubicin-induced co-localization of B7-H1 and DNA-PKcs at the nucleus,"[6]; MBA-MD-231 cells, 1 μM NU7026",blocked
same,inhibition of DNA-PKcs activity,[7]; 10 uM,completely inhibits
same,IC50,[7]; read-out: IC50 for inhibiting DNA-PKcs activity,230 nM
same,IC50,[7]; read-out: IC50 to inhibit DNA-PKcs,230 nM
same,effect on resistance of B7-H1/624mel cells to doxorubicin,"[8]; pretreatment with 10 uM NU7026 for 1 hour, MTS 72 hours after Dox",lost their resistance to doxorubicin
CCc1c2c(nc3ccc(O)cc13)-c1cc3c(c(=O)n1C2)COC(=O)[C@]3(O)CC [SN38],drug resistance of B7-H1/624mel cells compared with Mock/624mel cells (tumor cell survival),[8],more resistant
N.N.[Cl][Pt][Cl] [cisplatin],drug resistance of B7-H1/624mel cells compared with Mock/624mel cells (tumor cell survival),[8],more resistant
COc1cccc2c1C(=O)c1c(O)c3c(c(O)c1C2=O)C[C@@](O)(C(=O)CO)C[C@@H]3O[C@H]1C[C@H](N)[C@H](O)[C@H](C)O1 [doxorubicin],level of active caspase-3 in B7-H1/624mel cells compared with Mock/624mel cells,[9],lower
same,localization of B7-H1 and DNA-PKcs after treatment with cytotoxic drug,"[6]; MDA-MB-231 cells, doxorubicin 2 ug/ml, 2 hours",co-localization of B7-H1 and DNA-PKcs was observed in the nuclei
same,apoptosis in B7-H1/624mel cells compared to Mock/624mel cells (fold less),[10],5 fold
same,drug resistance of B7-H1/624mel cells compared with Mock/624mel cells (tumor cell survival),[8],more resistant
